Patent US10131663B2, “Chemical compounds” (AstraZeneca AB, priority 2016, dated 2018)

Tests used:
[1] = biological target: T1, Estrogen Receptor (ERα) in MCF-7 cells (Homo sapiens (Human), UniProt P03372); assay: MCF-7 ER down-regulation assay (immuno-fluorescence); type: cell-based
In short: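 Compounds dispensed acoustically from DMSO stocks onto MCF-7 cells; cells fixed 20 min at room temperature, then automated immunostaining for ERα with overnight incubation at 4° C. Read-out is mean total ER fluorescence intensity normalized to cell number (intensity per cell), with curve fitting for concentration-response values.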

[2] = biological target: estrogen receptor (ERα) in CAMA-1 cells (Homo sapiens (Human), UniProt P03372); assay: Western blotting assay, ER down-regulation in CAMA-1; type: cell-based; details: 100 nM compound, 48 h, normalised to 100 nM fulvestrant
In short: (§1)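 Cells treated with compounds at 100 nM or 0.1% DMSO vehicle for 48 h at 37 °C, then lysed; ERα detected by western blot with anti-ERα (SP1) rabbit monoclonal. Down-regulation normalised to vehicle (0%) and 100 nM fulvestrant (100%) run on the same gel.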

[3] = biological target: T1, Estrogen Receptor (ERα) in MCF-7 cells; assay: Western blotting assay, ER down-regulation in MCF-7; type: cell-based; details: 100 nM compound, 48 h, normalised to 100 nM fulvestrant
In short: as §1

[4] = log D (shake flask, 1-octanol/aqueous buffer); type: physicochemical
In short: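 Distribution between 1-octanol and aqueous buffer at pH 7.4 was measured by shake flask, with compounds run in mixtures of ten. Relative concentrations in each phase were quantified by UPLC with quantitative MS. Caffeine served as a low-log D QC sample in all runs.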

[5] = Human plasma protein binding (equilibrium dialysis); type: in vitro ADME; details: dialysis 18 hours
In short: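 Fraction unbound (fu %) in human plasma, from LC/MSMS of plasma and buffer sides (7-point plasma calibration) after 18 h rapid equilibrium dialysis. Single determinations, with compounds pooled up to 10 per plasma pool.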

[6] = biological target: hERG potassium channel (Homo sapiens (Human), UniProt Q12809); assay: hERG binding assay (automated patch clamp, CHO cells); type: cell-based; details: CHO cell line, Nanion Syncropatch 384PE
In short: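 CHO cells on automated patch clamp; compounds tested in quadruplicate. Currents evoked every 15 s from −80 mV holding by a 500 ms step to 60 mV then 500 ms to −40 mV.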

[7] = Human Caco-2 bidirectional permeability A to B and B to A; type: in vitro ADME; details: for Papp at 2 h: Caco-2, 2 hours, pH 7.4; for efflux ratio at 2 h: Caco-2, pH 7.4
[8] = pH 7.4, 1-octanol/aqueous buffer
[9] = 1-octanol/aqueous buffer, pH 7.4, pH 7.4, 1-octanol/aqueous buffer

T1 sequence (P03372 whole entry): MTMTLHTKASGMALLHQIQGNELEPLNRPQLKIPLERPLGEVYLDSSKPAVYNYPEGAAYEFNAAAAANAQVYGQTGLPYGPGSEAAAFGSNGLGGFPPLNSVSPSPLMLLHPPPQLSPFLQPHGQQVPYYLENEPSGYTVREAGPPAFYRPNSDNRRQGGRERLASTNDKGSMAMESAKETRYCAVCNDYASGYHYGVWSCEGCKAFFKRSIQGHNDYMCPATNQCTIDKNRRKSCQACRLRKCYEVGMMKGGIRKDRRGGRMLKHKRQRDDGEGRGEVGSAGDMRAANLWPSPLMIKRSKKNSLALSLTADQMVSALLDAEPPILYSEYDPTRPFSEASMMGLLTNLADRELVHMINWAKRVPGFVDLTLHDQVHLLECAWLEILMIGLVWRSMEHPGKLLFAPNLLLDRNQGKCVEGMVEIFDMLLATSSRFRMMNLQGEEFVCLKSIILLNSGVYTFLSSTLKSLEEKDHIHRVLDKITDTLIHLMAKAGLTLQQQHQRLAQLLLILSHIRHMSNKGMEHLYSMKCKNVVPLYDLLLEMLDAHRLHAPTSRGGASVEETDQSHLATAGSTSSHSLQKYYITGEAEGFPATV
Sequence of estrogen receptor (ERα) in CAMA-1 cells (P03372 whole entry): as above
Sequence of hERG potassium channel (Q12809 whole entry): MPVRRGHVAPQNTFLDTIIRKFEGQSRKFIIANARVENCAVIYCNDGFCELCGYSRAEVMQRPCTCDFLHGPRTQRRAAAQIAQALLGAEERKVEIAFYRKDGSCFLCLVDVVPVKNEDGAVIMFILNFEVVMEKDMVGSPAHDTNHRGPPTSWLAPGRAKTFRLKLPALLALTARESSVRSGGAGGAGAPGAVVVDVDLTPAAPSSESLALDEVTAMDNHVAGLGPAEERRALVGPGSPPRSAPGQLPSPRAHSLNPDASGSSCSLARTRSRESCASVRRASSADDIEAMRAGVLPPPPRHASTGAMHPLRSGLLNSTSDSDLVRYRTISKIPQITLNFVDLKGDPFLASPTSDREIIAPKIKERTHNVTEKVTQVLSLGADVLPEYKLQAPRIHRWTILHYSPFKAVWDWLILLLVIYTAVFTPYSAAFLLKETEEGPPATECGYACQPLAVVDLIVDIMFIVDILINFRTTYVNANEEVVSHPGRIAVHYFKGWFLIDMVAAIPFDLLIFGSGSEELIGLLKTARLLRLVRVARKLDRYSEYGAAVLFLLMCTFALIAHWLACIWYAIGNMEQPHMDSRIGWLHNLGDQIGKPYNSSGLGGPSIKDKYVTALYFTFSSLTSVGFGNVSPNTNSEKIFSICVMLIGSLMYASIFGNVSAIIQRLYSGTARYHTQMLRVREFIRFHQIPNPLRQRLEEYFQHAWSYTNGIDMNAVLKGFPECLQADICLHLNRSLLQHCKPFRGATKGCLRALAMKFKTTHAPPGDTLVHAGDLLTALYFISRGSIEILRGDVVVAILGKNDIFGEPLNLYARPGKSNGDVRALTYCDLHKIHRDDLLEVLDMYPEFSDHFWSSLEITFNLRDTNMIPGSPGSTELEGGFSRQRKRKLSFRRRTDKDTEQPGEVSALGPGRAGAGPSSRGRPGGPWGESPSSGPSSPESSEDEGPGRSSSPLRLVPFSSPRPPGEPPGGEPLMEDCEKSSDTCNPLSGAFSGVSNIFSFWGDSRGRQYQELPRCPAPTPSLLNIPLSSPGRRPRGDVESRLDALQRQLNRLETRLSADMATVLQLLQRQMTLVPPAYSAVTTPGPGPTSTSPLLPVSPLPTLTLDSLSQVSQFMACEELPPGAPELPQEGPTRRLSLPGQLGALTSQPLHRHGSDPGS

Row | Compound | IC50 [1] | CAMA1 Western % ER deg vs Fv [2] | MCF7 Western % ER deg vs Fv [3] | logD [4, 8] | Human plasma protein binding (% free) [5] | IC50 [6] | Papp at 2 h [7] | efflux ratio at 2 h [7] | logD [4, 9]
1 | C[C@@H]1Cc2c(ccc3[nH]ncc23)[C@@H](c2ncc(NC3CN(CCCF)C3)cc2F)N1CC(F)(F)F [Example 30, 5-fluoro-N-(1-(3-fluoropropyl)azetidin-3-yl)-6-((6S,8R)-8-methyl-7-(2,2,2-trifluoroethyl)-6,7,8,9-tetrahydro-3H-pyrazolo[4,3-f]isoquinolin-6-yl)pyridin-3-amine] | 0.28 nM | 98% | 96% | 3 | 16 % free | > 33000 nM | 2.7 ×10⁻⁶ cm/s | 7.8 | –
2 | C[C@@H]1Cc2c(ccc3[nH]ncc23)[C@@H](c2ccc(NC3CN(CCCF)C3)cc2)N1CC(F)(F)F [Example 27, 1-(3-Fluoropropyl)-N-(4-((6R,8R)-8-methyl-7-(2,2,2-trifluoroethyl)-6,7,8,9-tetrahydro-3H-pyrazolo[4,3-f]isoquinolin-6-yl)phenyl)azetidin-3-amine] | 0.05 nM | 108% | 110% | – | 3.8 % free | 7900 nM | 5.4 ×10⁻⁶ cm/s | 0.9 | 3.8
3 | COCC(F)(F)CN1[C@H](c2ccc(NC3CN(CCCF)C3)cc2OC)c2ccc3[nH]ncc3c2C[C@H]1C [Example 1, N-(4-((6S,8R)-7-(2,2-difluoro-3-methoxypropyl)-8-methyl-6,7,8,9-tetrahydro-3H-pyrazolo[4,3-f]isoquinolin-6-yl)-3-methoxyphenyl)-1-(3-fluoropropyl)azetidin-3-amine] | 0.1 nM | 92% | 91% | – | 8.3 % free | 10000 nM | 0.9 ×10⁻⁶ cm/s | 9.4 | 3.4
4 | C[C@@H]1Cc2c(ccc3[nH]ncc23)[C@@H](c2ccc(NC3CN(CCCF)C3)cn2)N1CC(F)(F)CO [Example 16, 2,2-difluoro-3-((6S,8R)-6-(5-((1-(3-fluoropropyl)azetidin-3-yl)amino)pyridin-2-yl)-8-methyl-3,6,8,9-tetrahydro-7H-pyrazolo[4,3-f]isoquinolin-7-yl)propan-1-ol] | 0.54 nM | 105% | 104% | 2 | 64 % free | > 40000 nM | 1.6 ×10⁻⁶ cm/s | 9.7 | –
